In ChEMBL document CHEMBL1909046, “DrugMatrix in vitro pharmacology data” one finds IC50 and Ki data, which are given here for 20 compounds.

Experiment [1] addresses 5-hydroxytryptamine receptor 4 (Cavia porcellus, UniProt O70528). The class given is cell membranes, Dunkin-Hartley, Striatum, Membrane.
Experiment [2] deals with T1, Alpha-2A adrenergic receptor (Homo sapiens, UniProt P08913).
T1 sequence (P08913 whole entry): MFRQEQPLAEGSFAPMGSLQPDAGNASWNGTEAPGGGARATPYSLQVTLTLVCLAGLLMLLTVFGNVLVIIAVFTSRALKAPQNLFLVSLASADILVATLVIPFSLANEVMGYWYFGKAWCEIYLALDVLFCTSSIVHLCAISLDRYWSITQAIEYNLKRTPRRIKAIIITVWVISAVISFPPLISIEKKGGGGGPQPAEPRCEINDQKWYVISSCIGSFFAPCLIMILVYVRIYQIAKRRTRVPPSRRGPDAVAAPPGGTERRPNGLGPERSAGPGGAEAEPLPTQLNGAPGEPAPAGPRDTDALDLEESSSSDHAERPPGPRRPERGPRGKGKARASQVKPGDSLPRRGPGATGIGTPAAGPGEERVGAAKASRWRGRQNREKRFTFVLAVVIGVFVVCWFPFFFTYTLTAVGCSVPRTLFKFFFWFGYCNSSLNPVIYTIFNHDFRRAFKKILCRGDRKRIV
Format: cell membranes, Sf9, Membrane.

Experiment [3] deals with Mitogen-activated protein kinase 14 (Homo sapiens, UniProt Q16539). Further details: species or system Escherichia coli.
Experiment [4] is described as follows: DRUGMATRIX: Glutamate, NMDA, Phencyclidine radioligand binding (ligand: [3H] TCP). Format: cell membranes, Rattus norvegicus, Wistar, Cerebral cortex, Membrane. The note with it: Not Active = under 50% inhibition at 10 µM.
For experiment [5], the target named is Beta-1 adrenergic receptor (Homo sapiens, UniProt P08588). As to the kind of experiment: DRUGMATRIX: Adrenergic beta1 radioligand binding (ligand: [125I] Cyanopindolol). The class given is cell membranes, CHO-K1, Membrane. The note with it: cho-k1; Not Active = under 50% inhibition at 10 µM.
Experiment [6] addresses Vascular endothelial growth factor receptor 1 (Homo sapiens, UniProt P17948). Format: cell-based. To be noted: huvec.
The target of experiment [7] is Beta-2 adrenergic receptor (Homo sapiens, UniProt P07550). The experiment is described as follows: DRUGMATRIX: Adrenergic beta2 radioligand binding (ligand: [3H] CGP-12177). The note with it: cho; Not Active = under 50% inhibition at 10 µM. Format: cell membranes, CHO, Membrane.
Beta-2 adrenergic receptor, sequence (P07550 whole entry): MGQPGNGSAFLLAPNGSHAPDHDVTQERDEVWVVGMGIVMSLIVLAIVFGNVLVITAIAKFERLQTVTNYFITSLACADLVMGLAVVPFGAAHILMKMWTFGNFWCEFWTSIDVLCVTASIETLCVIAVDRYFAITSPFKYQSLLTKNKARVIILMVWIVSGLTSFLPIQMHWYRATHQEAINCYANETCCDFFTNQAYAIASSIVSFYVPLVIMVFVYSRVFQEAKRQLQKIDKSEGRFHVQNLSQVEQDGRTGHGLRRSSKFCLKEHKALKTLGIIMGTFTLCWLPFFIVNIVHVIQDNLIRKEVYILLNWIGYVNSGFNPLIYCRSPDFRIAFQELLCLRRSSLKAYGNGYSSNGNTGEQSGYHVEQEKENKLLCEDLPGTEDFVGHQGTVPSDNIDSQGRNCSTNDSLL

Mitogen-activated protein kinase 14, sequence (Q16539 whole entry): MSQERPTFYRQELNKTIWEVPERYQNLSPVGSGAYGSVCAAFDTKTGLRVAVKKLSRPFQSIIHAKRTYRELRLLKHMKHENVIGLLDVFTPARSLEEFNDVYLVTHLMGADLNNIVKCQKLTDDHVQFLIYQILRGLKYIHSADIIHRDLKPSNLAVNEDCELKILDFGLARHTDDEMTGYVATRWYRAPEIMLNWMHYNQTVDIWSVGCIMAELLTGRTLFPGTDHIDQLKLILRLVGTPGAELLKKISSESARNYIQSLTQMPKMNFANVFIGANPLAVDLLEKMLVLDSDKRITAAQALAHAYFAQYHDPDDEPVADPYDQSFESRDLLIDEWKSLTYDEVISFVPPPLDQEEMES
5-hydroxytryptamine receptor 4, sequence (O70528 whole entry): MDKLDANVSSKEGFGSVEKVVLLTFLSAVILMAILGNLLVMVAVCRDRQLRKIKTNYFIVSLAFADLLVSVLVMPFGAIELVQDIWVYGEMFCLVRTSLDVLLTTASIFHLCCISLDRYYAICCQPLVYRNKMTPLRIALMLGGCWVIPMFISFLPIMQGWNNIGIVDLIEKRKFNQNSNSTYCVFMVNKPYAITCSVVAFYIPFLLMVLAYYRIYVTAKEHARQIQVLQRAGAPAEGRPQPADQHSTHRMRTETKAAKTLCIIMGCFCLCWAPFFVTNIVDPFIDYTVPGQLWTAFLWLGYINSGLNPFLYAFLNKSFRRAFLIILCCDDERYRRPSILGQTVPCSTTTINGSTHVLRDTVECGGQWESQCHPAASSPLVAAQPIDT
Vascular endothelial growth factor receptor 1, sequence (P17948 whole entry): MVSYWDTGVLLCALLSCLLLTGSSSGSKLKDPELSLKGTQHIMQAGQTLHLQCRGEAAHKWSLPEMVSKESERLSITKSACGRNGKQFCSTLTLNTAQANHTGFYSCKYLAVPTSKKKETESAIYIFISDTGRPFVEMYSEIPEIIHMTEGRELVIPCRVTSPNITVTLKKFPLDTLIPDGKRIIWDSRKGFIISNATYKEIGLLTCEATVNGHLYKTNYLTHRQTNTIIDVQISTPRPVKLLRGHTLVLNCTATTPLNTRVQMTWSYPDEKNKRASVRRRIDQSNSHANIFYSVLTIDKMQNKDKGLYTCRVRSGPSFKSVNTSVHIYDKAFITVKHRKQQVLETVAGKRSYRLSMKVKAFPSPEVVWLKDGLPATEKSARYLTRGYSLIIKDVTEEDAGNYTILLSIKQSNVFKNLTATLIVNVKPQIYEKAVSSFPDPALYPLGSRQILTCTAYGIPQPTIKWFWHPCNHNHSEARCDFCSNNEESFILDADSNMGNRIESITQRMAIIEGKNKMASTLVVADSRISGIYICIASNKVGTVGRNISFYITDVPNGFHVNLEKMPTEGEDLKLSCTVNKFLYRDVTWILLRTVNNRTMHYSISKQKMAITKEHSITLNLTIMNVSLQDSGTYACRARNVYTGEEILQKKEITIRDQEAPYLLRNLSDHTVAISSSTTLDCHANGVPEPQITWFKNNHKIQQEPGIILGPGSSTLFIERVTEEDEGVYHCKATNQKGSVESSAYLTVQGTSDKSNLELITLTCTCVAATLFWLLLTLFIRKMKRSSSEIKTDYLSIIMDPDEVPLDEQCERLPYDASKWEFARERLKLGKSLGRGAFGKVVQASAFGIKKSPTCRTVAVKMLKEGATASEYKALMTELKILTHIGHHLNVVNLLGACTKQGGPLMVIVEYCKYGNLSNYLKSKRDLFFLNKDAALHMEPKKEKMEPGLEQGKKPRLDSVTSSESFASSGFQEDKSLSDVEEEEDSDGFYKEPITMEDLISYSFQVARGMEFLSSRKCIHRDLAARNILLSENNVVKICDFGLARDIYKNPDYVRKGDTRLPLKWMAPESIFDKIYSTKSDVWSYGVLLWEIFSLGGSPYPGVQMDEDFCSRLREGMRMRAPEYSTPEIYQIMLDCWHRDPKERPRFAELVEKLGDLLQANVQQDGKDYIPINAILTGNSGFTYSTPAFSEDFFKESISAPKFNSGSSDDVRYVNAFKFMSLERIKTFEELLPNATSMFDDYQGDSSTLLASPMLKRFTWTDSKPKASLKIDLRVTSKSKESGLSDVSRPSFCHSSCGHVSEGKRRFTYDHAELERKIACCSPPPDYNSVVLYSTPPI
Beta-1 adrenergic receptor, sequence (P08588 whole entry): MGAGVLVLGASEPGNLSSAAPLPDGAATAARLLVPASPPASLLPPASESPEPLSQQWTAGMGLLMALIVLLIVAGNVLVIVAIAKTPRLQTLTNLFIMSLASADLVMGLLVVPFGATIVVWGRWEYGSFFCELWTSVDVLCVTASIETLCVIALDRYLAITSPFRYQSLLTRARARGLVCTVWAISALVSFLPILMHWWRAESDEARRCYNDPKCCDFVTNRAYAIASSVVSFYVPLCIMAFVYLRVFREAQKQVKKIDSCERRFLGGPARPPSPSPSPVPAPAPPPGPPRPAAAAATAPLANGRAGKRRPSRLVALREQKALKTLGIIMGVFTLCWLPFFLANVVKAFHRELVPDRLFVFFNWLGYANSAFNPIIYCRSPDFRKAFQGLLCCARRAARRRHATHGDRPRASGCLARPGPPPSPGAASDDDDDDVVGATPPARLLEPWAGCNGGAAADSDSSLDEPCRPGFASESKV

A word on the IC50: it is the midpoint of a concentration-inhibition curve. By Ki is commonly meant the dissociation constant of the complex between target and ligand, obtained from inhibition or displacement. As to `OC[C@H]1O[C@@H]2O[C@H]3[C@H](O)[C@@H](O)[C@@H](O[C@H]4[C@H](O)[C@@H](O)[C@@H](O[C@H]5[C@H](O)[C@@H](O)[C@@H](O[C@H]6[C@H](O)[C@@H](O)[C@@H](O[C@H]7[C@H](O)[C@@H](O)[C@@H](O[C@H]1[C@H](O)[C@H]2O)O[C@@H]7CO)O[C@@H]6CO)O[C@@H]5CO)O[C@@H]4CO)O[C@@H]3CO` [ALFADEX], the IC50 result in experiment [1], in experiment [2] (sf9), in experiment [3], in experiment [4], in experiment [5] and in experiment [6] was “Not Active” in each case. In addition, in experiment [7], the IC50 result is “Not Active”. Further, in experiment [4], the inhibitory constant (Ki) entry is reported as “Not Active”.

Take `Oc1ncnc2[nH]ncc12` [ALLOPURINOL]: the IC50 entry in experiment [1], in experiment [2] (sf9), in experiment [3], in experiment [4], in experiment [5] and in experiment [6] was “Not Active” throughout. Moreover, the IC50 entry in experiment [7] was “Not Active”. Moreover, the inhibitory constant (Ki) result in experiment [4] was “Not Active”.

As for `C=CCO` [ALLYL ALCOHOL], the IC50 entry in experiment [1], in experiment [2] (sf9), in experiment [3], in experiment [4], in experiment [5] and in experiment [6] was “Not Active” each time. Further, the IC50 result in experiment [7] is given as “Not Active”. Moreover, the Ki entry in experiment [4] was “Not Active”.

For `Nc1nc(N)c2nc(CNc3ccc(C(=O)N[C@@H](CCC(=O)O)C(=O)O)cc3)cnc2n1` [AMINOPTERIN], the IC50 result in experiment [1], in experiment [2] (sf9), in experiment [3], in experiment [4], in experiment [5] and in experiment [6] was “Not Active” each time. In addition, the IC50 entry in experiment [7] is “Not Active”. In addition, the inhibitory constant (Ki) entry in experiment [4] was “Not Active”.

Consider `Nc1ccc(C(=O)O)c(O)c1` [AMINOSALICYLIC ACID], for which the 50% inhibitory concentration (IC50) result in experiment [1], in experiment [2] (sf9), in experiment [3], in experiment [4], in experiment [5] and in experiment [6] was “Not Active” throughout. In addition, the half-inhibitory concentration (IC50) entry in experiment [7] is given as “Not Active”. The Ki entry in experiment [4] is “Not Active”.

For the compound `C[C@@H]1[C@H](O)[C@@H](C)/C=C/C=C/C=C/C=C/C=C/C=C/C=C/[C@H](O[C@@H]2O[C@H](C)[C@@H](O)[C@H](N)[C@@H]2O)C[C@@H]2O[C@](O)(C[C@@H](O)C[C@@H](O)[C@H](O)CC[C@@H](O)C[C@@H](O)CC(=O)O[C@H]1C)C[C@H](O)[C@H]2C(=O)O` [AMPHOTERICIN B], the 50% inhibitory concentration (IC50) entry in experiment [1], in experiment [2] (sf9), in experiment [3], in experiment [4], in experiment [5] and in experiment [6] was “Not Active” throughout. Moreover, the IC50 result in experiment [7] is listed as “Not Active”. Further, the Ki entry in experiment [4] is “Not Active”.

`CC(C)(C#N)c1cc(Cn2cncn2)cc(C(C)(C)C#N)c1` [ANASTROZOLE]: the IC50 result in experiment [1], in experiment [2] (sf9), in experiment [3], in experiment [4], in experiment [5] and in experiment [6] was “Not Active” throughout. The IC50 result in experiment [7] was “Not Active”. In experiment [4], the inhibition constant Ki entry is listed as “Not Active”.

Regarding `C[C@]12CC[C@@H](O)C[C@@H]1CC[C@@H]1[C@@H]2CC[C@]2(C)C(=O)CC[C@@H]12` [ANDROSTERONE], the 50% inhibitory concentration (IC50) entry in experiment [1], in experiment [2] (sf9), in experiment [3], in experiment [4], in experiment [5] and in experiment [6] was “Not Active” in each case. In experiment [7], the IC50 result is “Not Active”. Also, the Ki result in experiment [4] was “Not Active”.

Take `NCC(CC(=O)O)c1ccc(Cl)cc1` (stereo unspecified) [BACLOFEN]: the IC50 result in experiment [1], in experiment [2] (sf9), in experiment [3], in experiment [4], in experiment [5] and in experiment [6] was “Not Active” each time. In addition, in experiment [7], the 50% inhibitory concentration (IC50) result is listed as “Not Active”. The inhibition constant Ki entry in experiment [4] is recorded as “Not Active”.

In the case of `O=C(O)c1ccccc1` [BENZOIC ACID], the IC50 entry in experiment [1], in experiment [2] (sf9), in experiment [3], in experiment [4], in experiment [5] and in experiment [6] was “Not Active” throughout. Also, the IC50 result in experiment [7] was “Not Active”. Besides, in experiment [4], the Ki entry was “Not Active”.

`c1ccc2sc(SSc3nc4ccccc4s3)nc2c1` [BENZOTHIAZYL DISULFIDE]: the half-maximal inhibitory concentration (IC50) entry in experiment [1] is “Not Active”; in experiment [2] (read-out: IC50) it was 899 nM; in experiment [3] it was “Not Active”; in experiment [4], “Not Active”; in experiment [5], “Not Active”; in experiment [6], “Not Active”. For the same compound, the IC50 entry in experiment [7] is recorded as “Not Active”. Also, the Ki in experiment [2] (read-out: Ki) was 337 nM; in experiment [4] it was “Not Active”.

Consider `OC[C@H]1O[C@@H]2O[C@H]3[C@H](O)[C@@H](O)[C@@H](O[C@H]4[C@H](O)[C@@H](O)[C@@H](O[C@H]5[C@H](O)[C@@H](O)[C@@H](O[C@H]6[C@H](O)[C@@H](O)[C@@H](O[C@H]7[C@H](O)[C@@H](O)[C@@H](O[C@H]8[C@H](O)[C@@H](O)[C@@H](O[C@H]1[C@H](O)[C@H]2O)O[C@@H]8CO)O[C@@H]7CO)O[C@@H]6CO)O[C@@H]5CO)O[C@@H]4CO)O[C@@H]3CO` [BETADEX], for which the IC50 result in experiment [1], in experiment [2] (sf9), in experiment [3], in experiment [4], in experiment [5] and in experiment [6] was “Not Active” each time. Further, the 50% inhibitory concentration (IC50) result in experiment [7] is “Not Active”. For the same compound, in experiment [4], the inhibition constant Ki entry is recorded as “Not Active”.

In the case of `C[C@H]1C[C@H]2[C@@H]3CCC4=CC(=O)C=C[C@]4(C)[C@@]3(F)[C@@H](O)C[C@]2(C)[C@@]1(O)C(=O)CO` [BETAMETHASONE], the concentration for half-maximal inhibition (IC50) result in experiment [1], in experiment [2] (sf9), in experiment [3], in experiment [4], in experiment [5] and in experiment [6] was “Not Active” in each case. For the same compound, in experiment [7], the half-maximal inhibitory concentration (IC50) entry is “Not Active”. Besides, in experiment [4], the Ki result was “Not Active”.

On to `CC(C)(c1ccc(O)cc1)c1ccc(O)cc1` [BISPHENOL A], for which the IC50 result in experiment [1], in experiment [2] (sf9), in experiment [3], in experiment [4], in experiment [5] and in experiment [6] was “Not Active” throughout. Further, the 50% inhibitory concentration (IC50) result in experiment [7] was “Not Active”. The inhibitory constant (Ki) result in experiment [4] was “Not Active”.

`CN(Cc1cc(Br)cc(Br)c1N)C1CCCCC1` [BROMHEXINE]: the IC50 entry in experiment [1], in experiment [2] (sf9), in experiment [3], in experiment [4], in experiment [5] and in experiment [6] was “Not Active” throughout. Moreover, the IC50 result in experiment [7] is recorded as “Not Active”. In experiment [4], the inhibition constant (Ki) result is reported as “Not Active”.

As to `CC(N)Cc1c[nH]c2ccc(OCc3cccs3)cc12` (stereo unspecified) [BW-723C86], the concentration for half-maximal inhibition (IC50) entry in experiment [1], in experiment [2] (sf9), in experiment [3], in experiment [4], in experiment [5] and in experiment [6] was “Not Active” in each case. In addition, the concentration for half-maximal inhibition (IC50) entry in experiment [7] was “Not Active”. In addition, the inhibitory constant (Ki) entry in experiment [4] is given as “Not Active”.

Regarding `CC12CCC(CC1=O)C2(C)C` (stereo unspecified) [CAMPHOR], the IC50 result in experiment [1], in experiment [2] (sf9), in experiment [3], in experiment [4], in experiment [5] and in experiment [6] was “Not Active” each time. Besides, in experiment [7], the IC50 result is given as “Not Active”. Also, the Ki entry in experiment [4] is reported as “Not Active”.

Regarding `C[N+](C)(C)CCOC(N)=O.[Cl-]` [CARBACHOL], the IC50 result in experiment [1], in experiment [2] (sf9), in experiment [3], in experiment [4], in experiment [5] and in experiment [6] was “Not Active” throughout. Besides, the IC50 result in experiment [7] is “Not Active”. The inhibition constant (Ki) entry in experiment [4] is “Not Active”.

Take `CCCCCCNC(=O)n1cc(F)c(=O)[nH]c1=O` [CARMOFUR]: the half-maximal inhibitory concentration (IC50) result in experiment [1], in experiment [2] (sf9), in experiment [3], in experiment [4], in experiment [5] and in experiment [6] was “Not Active” in each case. The IC50 result in experiment [7] is “Not Active”. In addition, the Ki entry in experiment [4] is given as “Not Active”.

Turning to `Cl.NC[C@H]1CC[C@H](C(=O)Oc2ccc(CCC(=O)O)cc2)CC1` [CETRAXATE HYDROCHLORIDE], the IC50 result in experiment [1], in experiment [2] (sf9), in experiment [3], in experiment [4], in experiment [5] and in experiment [6] was “Not Active” each time. The IC50 entry in experiment [7] is recorded as “Not Active”. Further, in experiment [4], the Ki result is “Not Active”.
